Data set [1] has as its system neuronal uptake of dopamine. Particulars: relative to serotonin-norepinephrine uptake; cited from earlier work.
For data set [2] the following is noted: in vivo; cited from earlier work.
Data set [3] is described as follows: Solubility in solvents (product characteristics). In kind it is physicochemical. Particulars: in methanol.
Setting [4] is: ethanol, chloroform, dichloromethane, acetone, ethyl acetate, benzene, toluene and isopropyl alcohol.

Molecules are shown by their SMILES.

As for `COc1ccc(C(CN(C)C)C2(O)CCCCC2)cc1` (racemic) [formula (IX), (±)-1-[2-dimethylamino-1-(4-methoxy-phenyl)-ethyl]-cyclohexanol], the “inhibition of neuronal uptake of dopamine” value in data set [1] is on record as “to a lesser extent”. Moreover, in data set [2], the “effectiveness compared with standard antidepressants such as imipramine” value was “as effective as”.

Turning to `COc1ccc(C2(C#N)OC23CCCCC3)cc1` (stereo not shown) [formula (I), 2-(4-methoxy-phenyl)-1-oxa-spiro[2.5]octane-2-carbonitrile], the Solubility result in data set [3] (setting [4]) is listed as “Soluble in methanol, ethanol, chloroform, dichloromethane,”.

Consider `COc1ccc(C(=O)C2(Br)CCCCC2)cc1` [formula (II), (1-bromo-cyclohexyl)-(4-methoxy-phenyl)-methanone], for which the Solubility entry in data set [3] (setting [4]) was “Soluble in methanol, ethanol, chloroform, dichloromethane,”.

Consider `COc1ccc(C(=O)C2CCCCC2)cc1` [formula (III), cyclohexyl-(4-methoxy-phenyl)-methanone], for which the Solubility entry in data set [3] (setting [4]) is recorded as “Soluble in Methanol, ethanol, chloroform, dichloromethane,”.

Turning to `COc1ccc(C(O)C2CCCCC2)cc1` (stereo not shown) [formula (V), cyclohexyl-(4-methoxy-phenyl)-methanol], the Solubility entry in data set [3] (ethanol, chloroform, dichloromethane, acetone, ethyl acetate etc.) is given as “Soluble in methanol, ethanol, chloroform,”.

As to `COc1ccc(C(CN)C2(O)CCCCC2)cc1` (stereo not shown) [formula (X), 1-[2-amino-1-(4-methoxy-phenyl)-ethyl]-cyclohexanol], the Solubility result in data set [3] (chloroform and water) was “Soluble in methanol, chloroform and water”.

These data come from patent US20030195376A1, “Novel intermediate and processes for its preparation and conversion into a pharmacologically-active agent” (priority 2002, published 2003).
